Entries after “also recorded” stand apart in the source; their conditions may differ.
Legend:
[1] = system: U. maydis strains FB1 and FB2; test: Maize seedling infection model, compound added to inoculum, symptom scoring 12 dpi; type: in vivo, Ustilago maydis; parameters: key to Severity of disease symptoms First infection / Severity of disease symptoms Second infection: Full virulence is symbolized by (XXXXX); XXX - slightly reduced virulence; XX - reduced virulence; x - strongly reduced virulence; settings: for virulence of U. maydis: 5 mM final concentration in the inoculum of FB1xFB2, first test of ten hits; for Severity of disease symptoms First infection: 4-7 plants per assay; for Retesting for an inhibition of virulence: U. maydis, retest of four compounds; for inhibitory effect on virulence of U. maydis: 1 mM, 0.5 mM and 0.1 mM final concentration in the inoculum (Figure 2C)
Experimental: Compounds to be tested were added to the inoculum. Briefly, 6 day old maize seedlings were syringe-infected with about 0.5 ml of fungal suspension in H2O which was amended with the hit compound. The infection and symptoms assessment were done as described in Kämper et al., (Insights from the genome of the biotrophic fungal plant pathogen Ustilago maydis. Nature 2006, 444, 97-101). During the syringe-infection into the stem, the fungal-compound mix is dispersed between the rolled-up leaves and fills the leaf whorl. The compounds were applied only at the stage of mixing with the inoculum, which is subsequently diluted with existing apoplastic fluid, during the infection. In addition, compounds have to reach the Stp complex in biotrophic hyphae from the initial inoculum. […] Since compounds are dissolved in DMSO, the tolerance of U. maydis towards DMSO was tested by adding DMSO to the inoculum at concentrations between 10 and 50% final concentration.
Symptom scoring was done 12 days post infection (dpi) in case of U. maydis seedling infections. Symptom scoring occurred according to the categories described in Table 2. Table 2: Categories of virulence symptoms of U. maydis maize seedling infection (according to Kämper et al., 2006).

U. fabae = test: Uromyces fabae - Vicia faba leaf infection, pustule formation versus DMSO leaflet; type: in vivo
Experimental: The Uromyces fabae - Vicia faba system was established by initially obtaining spores as well as broad bean seeds from the Institut für Phytomedizin at Hohenheim University, Germany. Briefly, Vicia faba plants (Bingenheimer Saatgut Frühe Weißkeimige, G142) were propagated in soil up to about the 4 leaf stage (2-3 plants per pot). Plants were transferred to a chamber lined with wet paper. 100 mg U. fabae spores were mixed with 160 mg skimmed milk powder in 200 ml sterile H2O. Tween 20 was added to a final concentration of 0.01 % and the mixture was stirred in the dark for 45 min. Leaves were sprayed with the suspension on both the upper and lower side and afterwards the entire compartment was fogged with H2O before closure and kept in the dark for 20 h. Plants were then gradually allowed to dry and were placed in a growth chamber under a light regime of 16 h light (24°C) and 8 h (20°C) dark until symptoms developed (10-12 days). Plants were tossed and spores were collected on underlying aluminum foil, and aliquots were frozen at -80°C.
For the infection with compounds added, 10 mg of U. fabae spores were mixed with 16 mg skimmed milk powder in 20 ml sterile H2O. Tween 20 was added to a final concentration of 0.01 % and the mixture was stirred in the dark for 45 min. Compounds were diluted to the desired concentration into in the spore suspension. The controls received the same amount of DMSO. Per bean plant, one pinnate leaf with two leaflets was selected and one of the leaflets was infected with spores + compound and the other with spores + DMSO, respectively. To this end leaves were lightly sprayed with H2O and the 100µl spore solution containing the compound or DMSO respectively was applied on the upper part of the using a small painting brush. Afterwards the plants were placed in a chamber lined with wet paper, fogged with H2O before closure and kept in the dark for 20 h. Plants were then gradually allowed to dry and were placed in a growth chamber under a light regime of 16 h light (24°C) and 8 h (20°C) dark until symptoms developed. The symptoms were quantified by using a previously described method (Sillero and Rubiales, 2002) with minor modifications. Comparisons of pustule formation were done as follow: leaf treated with spores plus DMSO (control) versus leaf treated with spores plus compound in DMSO (test). A single bifurcated leaf was used for this assay, and one half received the control and the other half receive spores with compound. Then it was determined whether pustule formation occurs or is inhibited. Leaves were scored for the development of brownish-red pustules. Only when brownish-red pustules containing powdery spores (urediniospores) appeared on the control leaf an infection was counted as valid. All compounds were tested in three biological replicates. Pictures were taken at 12-14 days post infection.

[2] = 5 mM hit compound added to inoculum of FB1xFB2, Zea mays
[3] = 1 mM final concentration in the inoculum of Vicia faba
[4] = 0.5 mM final concentration in the inoculum
[5] = 1 mM final concentration in the inoculum of Zea Mays (Figure 2A, B)

Structure (SMILES)	Virulence inhibition of U. maydis ([1]; 0.5 mM final concentration, dilution series (Figure 7))	Virulence inhibition of U. maydis ([1]; 1 mM final concentration, dilution series (Figure 7))	virulence of U. maydis [1]	Virulence inhibition of U. maydis ([1]; 5 mM final concentration, dilution series (Figure 7))	Severity of disease symptoms First infection [1, 2]	Retesting for an inhibition of virulence [1]	virulence inhibition of U. fabae (pustule formation) (U. fabae; [3])	Severity of disease symptoms Second infection ([1]; 5 mM hit compound added to inoculum of FB1xFB2, Zea mays, retest)	Virulence inhibition of U. maydis ([1]; dilution series between 5 mM and 0.01 mM final concentration (Figure 5))	virulence inhibition of U. fabae (pustule formation) (U. fabae; 0.1 mM final concentration)	virulence inhibition of U. fabae (pustule formation) (U. fabae; [4])	inhibitory activity on U. fabae virulence (U. fabae; Figure 6, concentration not given)	Virulence inhibition of U. maydis [1, 5]	inhibitory effect on virulence of U. maydis [1]
CC(C)n1ncc2cc(NS(=O)(=O)c3cc(F)ccc3F)cnc21 [Compound 1-B]	negligible	very strong; also recorded: very strongly	significant reductions in virulence	very strong; also recorded: very strongly	XX	confirmed the results	completely inhibited							
Cc1ccc(CSc2nc(=O)n(C3CCCC3)c3c2CCC3)cc1 [Compound 1-C]			significant reductions in virulence		XXX	confirmed the results	inhibited pustule formation	XXX	concentration dependent; also recorded: strong inhibitory activity	inhibited pustule formation	inhibited pustule formation	strong inhibitory activity		
[O-][n+]1c(-c2ccc(C(F)(F)F)cc2)c(-c2ccc(C(F)(F)F)cc2)n2ccccc21 [Compound 2-A]							able to inhibit pustule formation				fully inhibit pustule formation		able to reduce virulence	concentration dependent inhibitory effect
Cc1ccc(-c2c(-c3ccc(C)cc3)[n+]([O-])c3ccccn23)cc1 [Compound 1-A]			significant reductions in virulence			confirmed the results	able to inhibit pustule formation				developed symptoms		able to reduce virulence	concentration dependent inhibitory effect
O=[N+]([O-])c1ccc(-c2c(-c3ccccc3)n3ccccc3[n+]2[O-])cc1 [Compound 3-A]							able to inhibit pustule formation				developed symptoms		only mildly	
